Test results taken from ChEMBL document CHEMBL1201862, “PubChem BioAssay data set” (2004).
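1) Cells in 96-well plates. 2) Compound, 48 h, 5 concentrations. 3) Linear interpolation between surrounding doses. 4) Unreached endpoint = highest concentration. GI50 marks 50% less growth.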 Calls of active or inactive are those of the source. No stated cut-off is given here; in the data, active = GI50 up to about 1.1 µM and inactive = higher.

Legend:
Experiment in all cases: growth of human tumour cells (NCI), 48 h
A498 = system: A498
ACHN = system: ACHN
HCC 2998 = system: HCC 2998
HCT-15 = system: HCT-15
HT-29 = system: HT-29
IGROV-1 = system: IGROV-1
NCI-H226 = system: NCI-H226
NCI-H460 = system: NCI-H460
OVCAR-4 = system: OVCAR-4
OVCAR-8 = system: OVCAR-8
RXF 393 = system: RXF 393
SK-MEL-28 = system: SK-MEL-28
SK-MEL-5 = system: SK-MEL-5
SN12C = system: SN12C
TK-10 = system: TK-10
UACC-62 = system: UACC-62
SR = system: SR

| SMILES | GI50 (A498) | GI50 (ACHN) | GI50 (HCC 2998) | GI50 (HCT-15) | GI50 (HT-29) | GI50 (IGROV-1) | GI50 (NCI-H226) | GI50 (NCI-H460) | GI50 (OVCAR-4) | GI50 (OVCAR-8) | GI50 (RXF 393) | GI50 (SK-MEL-28) | GI50 (SK-MEL-5) | GI50 (SN12C) | GI50 (TK-10) | GI50 (UACC-62) | GI50 (SR) |
| --- | --- | --- | --- | --- | --- | --- | --- | --- | --- | --- | --- | --- | --- | --- | --- | --- | --- |
| Cc1cc(=O)n(-c2ccccc2C)c(C)n1 | > 100 µM (inactive) | > 100 µM (inactive) | > 100 µM (inactive) | > 100 µM | > 100 µM (inactive) | > 100 µM (inactive) | > 100 µM (inactive) | > 100 µM (inactive) | > 100 µM (inactive) | > 100 µM (inactive) | > 100 µM (inactive) | > 100 µM (inactive) | > 100 µM (inactive) | > 100 µM (inactive) | > 100 µM (inactive) | > 100 µM (inactive) |  |
| Cc1ccc(/C=C2\CCCC(C(NO)c3ccc(C)cc3)C2=NO)cc1 (stereo not given) | 49.8 µM (inactive) | > 100 µM (inactive) | 16.8 µM (inactive) | 36.3 µM | 19.5 µM (inactive) | > 100 µM (inactive) |  | 24.7 µM (inactive) | 20 µM (inactive) | 53 µM (inactive) | 20.6 µM (inactive) | 16.1 µM (inactive) | 21.2 µM (inactive) | 20.7 µM (inactive) | > 100 µM (inactive) | 89.5 µM (inactive) |  |
| CCOC(C)C(/C=N/NC(N)=S)=NNC(N)=S (stereo not given) [GLOXAZONE] | 21.9 µM (inactive) | > 100 µM (inactive) | > 100 µM (inactive) | > 100 µM |  |  |  | > 100 µM (inactive) | > 100 µM (inactive) | > 100 µM (inactive) |  | > 74.1 µM (inactive) | 48.3 µM (inactive) | > 100 µM (inactive) | > 100 µM (inactive) | > 100 µM (inactive) | < 0.0251 µM (active) |
| COc1cc(/C=N/N=C(\N)NO)ccc1O | 44.9 µM (inactive) | 44.1 µM (inactive) |  | 50 µM | 67.8 µM (inactive) | > 100 µM (inactive) | 14.1 µM (inactive) | 38.8 µM (inactive) | > 100 µM (inactive) | 63.7 µM (inactive) | 31.5 µM (inactive) | 26 µM (inactive) | 53 µM (inactive) | > 100 µM (inactive) |  | 30.4 µM (inactive) |  |
| COc1cc(C=C2C(=O)OC(C)(C)OC2=O)cc(OC)c1OC |  | > 100 µM (inactive) | > 100 µM (inactive) | > 100 µM | > 100 µM (inactive) |  | > 100 µM (inactive) | > 100 µM (inactive) | > 100 µM (inactive) | > 100 µM (inactive) | > 100 µM (inactive) | > 100 µM (inactive) | > 100 µM (inactive) | > 100 µM (inactive) | > 100 µM (inactive) | > 100 µM (inactive) | > 100 µM (inactive) |
| COc1ccc(N2C(=O)C3CC(c4ccc(C)cc4)c4c([nH]c5ccccc45)C3C2=O)cc1 (stereo not given) | 30.2 µM (inactive) | 21.6 µM (inactive) | 52.7 µM (inactive) | 8.61 µM | 16.3 µM (inactive) | 38 µM (inactive) | 9.53 µM (inactive) | 4.9 µM (inactive) | 13.9 µM (inactive) | 5.43 µM (inactive) |  | > 49.9 µM (inactive) | 63.1 µM (inactive) | 8.87 µM (inactive) | 36.5 µM (inactive) | > 100 µM (inactive) | 2.02 µM (inactive) |
| O=C(O)/C(Cl)=C(Cl)/C=N/NC(=O)c1cc2ccccc2cc1O | 24.6 µM (inactive) | 18 µM (inactive) |  | 19.4 µM | 38.6 µM (inactive) | 15.5 µM (inactive) | 18.6 µM (inactive) | 21 µM (inactive) | 5.66 µM (inactive) | 19.7 µM (inactive) |  | 29.8 µM (inactive) | 9.82 µM (inactive) | 38.5 µM (inactive) | 35.5 µM (inactive) | 3.6 µM (inactive) | 9.55 µM (inactive) |
| Cc1ccccc1C1OC(=O)c2ccccc21 (stereo not given) | > 100 µM (inactive) | > 100 µM (inactive) | > 100 µM (inactive) | > 100 µM | > 100 µM (inactive) | > 100 µM (inactive) | > 100 µM (inactive) | > 100 µM (inactive) |  | 83.8 µM (inactive) | > 100 µM (inactive) | > 100 µM (inactive) | > 100 µM (inactive) | > 100 µM (inactive) | > 100 µM (inactive) | 56.1 µM (inactive) | > 100 µM (inactive) |
| C=CCNC(=S)NNC(=O)c1c(C)nc2sccn12 |  | > 100 µM (inactive) | > 100 µM (inactive) | > 100 µM | > 100 µM (inactive) | > 100 µM (inactive) | > 100 µM (inactive) | > 100 µM (inactive) |  | > 100 µM (inactive) | > 100 µM (inactive) | > 100 µM (inactive) | > 100 µM (inactive) | > 100 µM (inactive) | > 100 µM (inactive) | > 100 µM (inactive) | > 100 µM (inactive) |
| COc1cc2c(c(OC)c1OC)-c1ccc(SC)c(=O)cc1[C@@H](NCc1ccc([N+](=O)[O-])cc1)CC2 | 0.00461 µM (active) | 0.00959 µM (active) | 0.00299 µM (active) | 0.00487 µM | 0.00331 µM (active) | 0.0371 µM (active) | 0.00284 µM (active) | 0.00318 µM (active) |  | 0.00578 µM (active) | 0.00241 µM (active) | 0.00493 µM (active) | 0.00421 µM (active) | 0.00738 µM (active) | 0.0423 µM (active) | 0.00345 µM (active) | 0.00148 µM (active) |
| NCC(NC(=O)OCc1ccccc1)C(=O)O (stereo not given) | > 50 µM (inactive) | > 50 µM (inactive) | > 50 µM (inactive) | > 50 µM | > 50 µM (inactive) | > 50 µM (inactive) | > 50 µM (inactive) | > 50 µM (inactive) | > 50 µM (inactive) | > 50 µM (inactive) |  | > 50 µM (inactive) | > 50 µM (inactive) | > 50 µM (inactive) | > 50 µM (inactive) | > 50 µM (inactive) |  |
| Cc1cc2c(C)nn(Cc3ccccc3Cl)c2c(C#N)c1C |  | > 100 µM (inactive) | > 100 µM (inactive) | > 100 µM | > 100 µM (inactive) | > 100 µM (inactive) | > 100 µM (inactive) | > 100 µM (inactive) |  | > 100 µM (inactive) | > 100 µM (inactive) | > 100 µM (inactive) |  | > 100 µM (inactive) | > 100 µM (inactive) | > 100 µM (inactive) | > 100 µM (inactive) |
| CCOC1=C2N=C(C(CC)c3ccccc3F)N=C2C(=O)c2ccccc21 (stereo not given) |  | > 100 µM (inactive) | > 100 µM (inactive) | > 100 µM | > 100 µM (inactive) |  | > 100 µM (inactive) | > 100 µM (inactive) | > 100 µM (inactive) | > 100 µM (inactive) | 2.98 µM (inactive) | > 100 µM (inactive) |  | > 100 µM (inactive) | 3.27 µM (inactive) | > 100 µM (inactive) | > 100 µM (inactive) |
| CCN1C[C@]2(C)CC[C@H](OC)C34C1C([C@H](OC(C)=O)[C@@H]32)[C@@]1(OC)C[C@H](OC)[C@H]2C[C@@H]4[C@@H]1[C@H]2O | > 100 µM (inactive) | > 100 µM (inactive) | > 100 µM (inactive) | 87.5 µM | > 100 µM (inactive) | > 100 µM (inactive) | > 100 µM (inactive) | > 100 µM (inactive) | > 100 µM (inactive) | > 100 µM (inactive) | > 100 µM (inactive) | > 100 µM (inactive) | > 100 µM (inactive) | > 100 µM (inactive) | > 100 µM (inactive) | > 100 µM (inactive) |  |
| CC(=O)OC1CC2(C)OC(Cc3ccccc32)O1 (stereo not given) |  | > 100 µM (inactive) | > 100 µM (inactive) |  | > 100 µM (inactive) | > 100 µM (inactive) | > 100 µM (inactive) | > 100 µM (inactive) |  | > 100 µM (inactive) | > 100 µM (inactive) | > 100 µM (inactive) |  | > 100 µM (inactive) | > 100 µM (inactive) | > 100 µM (inactive) | > 100 µM (inactive) |
| C=CCCCN1CCCCC1=S |  | > 100 µM (inactive) | > 100 µM (inactive) | > 100 µM | > 100 µM (inactive) | > 100 µM (inactive) | > 100 µM (inactive) | > 100 µM (inactive) | > 100 µM (inactive) | > 100 µM (inactive) | > 100 µM (inactive) | > 100 µM (inactive) | > 100 µM (inactive) | > 100 µM (inactive) | > 100 µM (inactive) | > 100 µM (inactive) | > 100 µM (inactive) |
| CCCCN(CCCC)C(=O)C(=O)C(C)C(=O)CC (stereo not given) |  | > 100 µM (inactive) | > 100 µM (inactive) | > 100 µM | > 100 µM (inactive) | > 100 µM (inactive) | > 100 µM (inactive) | > 100 µM (inactive) | > 100 µM (inactive) | > 100 µM (inactive) |  | > 100 µM (inactive) |  | > 100 µM (inactive) | > 100 µM (inactive) | > 100 µM (inactive) |  |
| Cc1ccc(-c2cc(=O)c3cc(C)c(C)c(C(=O)O)c3o2)cc1 | > 100 µM (inactive) | > 100 µM (inactive) | > 100 µM (inactive) | > 100 µM | > 100 µM (inactive) | > 100 µM (inactive) |  | > 100 µM (inactive) | > 100 µM (inactive) | > 100 µM (inactive) |  | > 100 µM (inactive) | > 100 µM (inactive) | > 100 µM (inactive) | > 100 µM (inactive) | > 100 µM (inactive) |  |
| O=C(c1ccccc1)c1c(CNCc2ccccc2)n(C(=O)c2ccccc2)c2ccccc12 |  | 14.5 µM (inactive) | 86.9 µM (inactive) | 28.8 µM | 24.6 µM (inactive) | > 100 µM (inactive) | 29.6 µM (inactive) | 14.5 µM (inactive) | 9.95 µM (inactive) | 37.4 µM (inactive) |  | > 100 µM (inactive) | 29.9 µM (inactive) |  | > 100 µM (inactive) | 95.3 µM (inactive) | 6.58 µM (inactive) |
